According to patent US20200131669A1, “CYCLIC PEPTIDE COMPOUND HAVING HIGH MEMBRANE PERMEABILITY, AND LIBRARY CONTAINING SAME” (Chugai Seiyaku Kabushiki Kaisha, priority 2017, published 2020):
Starred links: 1 amine or outer side, 2 acyl side, 3 side chain; linkers in the order of their positions; H or OH if unused. Positions of bridges follow the written chain, without caps; N, C: chain ends. Non-standard residues stand in square brackets, D forms with d. Residues, ends and D or L forms follow the SMILES beside them. ξ: configuration not given here. *: point of attachment. X18 = CC(C(=O)[C@H](COC(C)(C)C)N[*:1])[C@@H](Cc1ccccc1)C(=O)[*:2]; Phe(4-CF3) = N[C@@H](Cc1ccc(C(F)(F)F)cc1)C(=O)O; NMePhe(3-Cl) = CN[C@@H](Cc1cccc(Cl)c1)C(=O)O; NMePhe(4-Cl) = CN[C@@H](Cc1ccc(Cl)cc1)C(=O)O; NMeW = CN[C@@H](Cc1c[nH]c2ccccc12)C(=O)O; hNle(7,7-F2) = N[C@@H](CCCCC(F)F)C(=O)O; Gly(NCH2CH2Ph) = O=C(O)CNCCc1ccccc1; hhPhe = N[C@@H](CCCc1ccccc1)C(=O)O; Hyp = O=C(O)[C@@H]1C[C@@H](O)CN1; NMeF = CN[C@@H](Cc1ccccc1)C(=O)O; NMeGABA = CN(CCCC(=O)[*:2])[*:1]; NMeI = CC[C@H](C)[C@H](NC)C(=O)O; ξThr(3R) = C[C@@H](O)C(N)C(=O)O; NMeD = CN[C@@H](CC(=O)O)C(=O)O; NMeL = CN[C@@H](CC(C)C)C(=O)O; NMeV = CN[C@H](C(=O)O)C(C)C; NMeAbu = CC[C@H](NC)C(=O)O; NMeS = CN[C@@H](CO)C(=O)O; NMeA = CN[C@@H](C)C(=O)O; Piperidide = C1CCN(*)CC1; Abu = CC[C@H](N)C(=O)O; Isopentyl = CC(C)CC*; NPrGly = CCCNCC(=O)O; Sar = CNCC(=O)O; tBu = CC(C)(C)*; CHF2 = FC(F)*; Propyl = CCC*

Experiment: Caco-2 membrane permeability, improved method as used in the following Examples (96-well, 20 to 24 h preincubation)
Assay type: in vitro ADME
Conditions: Caco-2, Caco-2
Procedure, shortened: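 Papp (cm/sec) was derived from LC/MS of basal samples collected 180 min after apical dosing in FaSSIF/HBSS pH 6.0 with 1% DMSO, against a basal HBSS pH 7.4 receiver containing 4% BSA. Three-week Caco-2 cultures were first preincubated with compound in DMEM+FaSSIF at 37 °C for 20–24 h.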

Row | SMILES | Papp A→B
1 | CC(C)C[C@H]1C(=O)N[C@@H](CCCc2ccccc2)C(=O)N(C)[C@@H](Cc2ccccc2)C(=O)N(C)[C@@H](C(C)C)C(=O)N[C@H](C(=O)N2CCCCC2)CC(=O)N[C@H](C)C(=O)N(C)[C@@H](Cc2ccccc2)C(=O)N[C@@H](C(C)C)C(=O)N(C)[C@@H](CC(C)C)C(=O)N[C@@H]([C@@H](C)O)C(=O)N(C)CC(=O)N1C [pd364] ([dA][NMeF]V[NMeL]T[Sar][NMeL][hhPhe][NMeF][NMeV]D-Piperidide; lactam N-11) | 1 ×10⁻⁶ cm/s

Same assay, conditions: human, Caco-2, Caco-2

Row | SMILES | Papp A→B at 180 min
2 | CCCOC[C@@H]1NC(=O)[C@H](CC(C)C)N(C)C(=O)[C@H](Cc2ccccc2)N(C)C(=O)CN(C)C(=O)[C@H]([C@@H](C)O)NC(=O)[C@H](CC(C)C)N(C)C(=O)[C@H]([C@@H](C)CC)NC(=O)[C@H](Cc2ccccc2)N(C)C(=O)CN(C)C(=O)C[C@@H](C(=O)N2CCCCC2)NC(=O)[C@H](CC(C)C)N(C)C1=O [pd330] ([Sar][NMeF]I[NMeL]T[Sar][NMeF][NMeL]S(Propyl)[NMeL]D-Piperidide; lactam N-11) | 1.8 ×10⁻⁶ cm/s
3 | CC[C@@H]1NC(=O)[C@H](Cc2ccccc2)N(C)C(=O)[C@H](COCCC(C)C)N(C)C(=O)[C@H](CC(C)C)NC(=O)[C@H](C)N(C)C(=O)C[C@@H](C(=O)N2CCCCC2)NC(=O)[C@H](CC(C)C)N(C)C(=O)CN(C)C(=O)[C@H]([C@@H](C)O)NC(=O)[C@H](CC(C)C)N(C)C(=O)[C@H](Cc2ccccc2)N(C)C1=O [pd307] ([NMeA]L[NMeS](Isopentyl)[NMeF][Abu][NMeF][NMeL]T[Sar][NMeL]D-Piperidide; lactam N-11) | 2.9 ×10⁻⁶ cm/s
4 | CC[C@H](C)[C@H]1C(=O)N[C@@H]([C@@H](C)O)C(=O)N(C)CC(=O)N(C)[C@@H](CC(C)C)C(=O)N[C@@H](C(=O)N2CCCCC2)CC(=O)N(C)[C@@H](C)C(=O)N[C@@H](CC(C)C)C(=O)N(C)[C@@H](CC(C)C)C(=O)N(C)[C@@H](CC(C)C)C(=O)N[C@@H](Cc2ccc(OC(F)F)cc2)C(=O)N(C)[C@@H](C)C(=O)N1C [pd480] ([NMeA]L[NMeL][NMeL]Y(CHF2)[NMeA][NMeI]T[Sar][NMeL][dD]-Piperidide; lactam N-11) | 5 ×10⁻⁶ cm/s
5 | CC[C@H](C)[C@@H]1NC(=O)[C@H](CC(C)C)N(C)C(=O)[C@@H](CC(C)C)NC(=O)C[C@@H](C(=O)N2CCCCC2)NC(=O)[C@H](CC(C)C)N(C)C(=O)[C@H](Cc2ccccc2)N(C)C(=O)[C@H](COC(C)(C)C)NC(=O)CN(CCc2ccccc2)C(=O)CN(C)C(=O)[C@H]([C@@H](C)O)NC(=O)[C@H](CC)N(C)C1=O [pd413] ([dL][NMeL]I[NMeAbu]T[Sar][Gly(NCH2CH2Ph)]S(tBu)[NMeF][NMeL]D-Piperidide; lactam N-11) | 1.5 ×10⁻⁶ cm/s
6 | CCO[C@@H]1C[C@H]2C(=O)N(C)[C@@H](CC(C)C)C(=O)N[C@@H]([C@@H](C)O)C(=O)N(C)[C@@H](Cc3ccccc3)C(=O)N[C@@H](Cc3ccccc3)C(=O)N(C)[C@@H](CC(C)C)C(=O)N[C@H](C(=O)N3CCCCC3)CC(=O)N[C@H](CC(C)C)C(=O)N3CCC[C@H]3C(=O)N[C@@H](COC(C)(C)C)C(=O)N(C)[C@@H](CC(C)C)C(=O)N2C1 [pd372] ([dL]PS(tBu)[NMeL][Hyp](Et)[NMeL]T[NMeF]F[NMeL]D-Piperidide; lactam N-11) | 1.4 ×10⁻⁶ cm/s
7 | CC(C)C[C@H]1C(=O)N[C@@H](COC(C)(C)C)C(=O)N(C)[C@@H](Cc2ccccc2)C(=O)N(C)[C@@H](C(C)C)C(=O)N[C@H](C(=O)N2CCCCC2)CC(=O)N[C@H](C(C)C)C(=O)N(C)[C@@H](Cc2ccccc2)C(=O)N[C@@H](CCCCC(F)F)C(=O)N(C)[C@@H](CC(C)C)C(=O)N[C@@H]([C@@H](C)O)C(=O)N(C)CC(=O)N1C [pd331] ([dV][NMeF][hNle(7,7-F2)][NMeL]T[Sar][NMeL]S(tBu)[NMeF][NMeV]D-Piperidide; lactam N-11) | 2.1 ×10⁻⁶ cm/s
8 | CCO[C@@H]1C[C@H]2C(=O)N[C@@H]([C@@H](C)O)C(=O)N(C)[C@@H](CC(C)C)C(=O)N(C)[C@@H](CC(C)C)C(=O)N(C)[C@@H](CC(C)C)C(=O)N[C@H](C(=O)N3CCCCC3)CC(=O)N[C@H](CC(C)C)C(=O)N(C)[C@@H]([C@@H](C)CC)C(=O)N3CCC[C@H]3C(=O)N(C)[C@@H](CC(C)C)C(=O)N[C@@H](COC(C)(C)C)C(=O)N2C1 [pd385] ([dL][NMeI]P[NMeL]S(tBu)[Hyp](Et)T[NMeL][NMeL][NMeL]D-Piperidide; lactam N-11) | 3.4 ×10⁻⁶ cm/s
9 | CC(C)C[C@H]1C(=O)N[C@@H](Cc2ccc(OC(F)F)cc2)C(=O)N(C)[C@@H](CC(C)C)C(=O)N(C)[C@@H](Cc2ccccc2)C(=O)N[C@@H](COC(C)(C)C)C(=O)N(C)[C@@H](CC(C)C)C(=O)NC([C@@H](C)O)C(=O)N(C)[C@@H](C)C(=O)N(C)[C@@H](CC(C)C)C(=O)N[C@@H](C(=O)N2CCCCC2)CC(=O)N(C)CCCC(=O)N1C (stereo partly drawn) [pd478] ([NMeGABA][NMeL]Y(CHF2)[NMeL][NMeF]S(tBu)[NMeL][ξThr(3R)][NMeA][NMeL][dD]-Piperidide; lactam N-11) | 1.3 ×10⁻⁶ cm/s

Same assay, conditions: human, Caco-2, Caco-2 (cm/sec)

Row | SMILES | Papp A→B at 180 min
10 | CC(C)C[C@@H]1NC(=O)[C@H](Cc2ccccc2)C(C)C(=O)[C@H](COC(C)(C)C)NC(=O)[C@H](Cc2ccccc2)N(C)C(=O)[C@H](C)N(C)C(=O)[C@H](CC(C)C)N(C)C(=O)[C@H]2CCCN2C(=O)C[C@@H](C(=O)N2CCCCC2)N(C)C(=O)[C@H](Cc2ccccc2)N(C)C(=O)[C@H]([C@@H](C)O)NC(=O)[C@H](C(C)C)N(C)C1=O (some centres unmarked) [pd219] ([dP][NMeL][NMeA][NMeF][X18]L[NMeV]T[NMeF][NMeD]-Piperidide; lactam N-10) | 1.1 ×10⁻⁶ cm/s
11 | CCCN1CC(=O)N(C)[C@@H](CC(C)C)C(=O)N[C@@H](COC(C)(C)C)C(=O)N(C)[C@@H](Cc2ccccc2)C(=O)N(C)[C@@H](Cc2ccccc2)C(=O)N[C@H](C(=O)N2CCCCC2)CC(=O)N[C@H](C)C(=O)N(C)[C@@H](Cc2ccccc2)C(=O)N[C@@H](C(C)C)C(=O)N(C)[C@@H](CC(C)C)C(=O)N[C@@H]([C@@H](C)O)C1=O [pd194] ([dA][NMeF]V[NMeL]T[NPrGly][NMeL]S(tBu)[NMeF][NMeF]D-Piperidide; lactam N-11) | 5.3 ×10⁻⁶ cm/s
12 | CC(C)C[C@H]1C(=O)N(C)[C@@H](Cc2c[nH]c3ccccc23)C(=O)N(C)[C@@H](Cc2ccccc2)C(=O)N[C@@H]([C@@H](C)O)C(=O)N(C)[C@@H](C)C(=O)N(C)[C@@H](CC(C)C)C(=O)N[C@H](C(=O)N2CCCCC2)CC(=O)N(C)[C@@H](C)C(=O)N(C)[C@@H](CC(C)C)C(=O)N(C)[C@@H](CC(C)C)C(=O)N[C@@H](C(C)C)C(=O)N1C [pd109] ([NMeA][NMeL][NMeL]V[NMeL][NMeW][NMeF]T[NMeA][NMeL]D-Piperidide; lactam N-11) | 0.0092 ×10⁻⁶ cm/s
13 | CC(C)C[C@H]1C(=O)N[C@@H](COC(C)(C)C)C(=O)N(C)[C@@H](Cc2ccccc2)C(=O)N(C)[C@@H](C)C(=O)N[C@H](C(=O)N2CCCCC2)CC(=O)N[C@H](C(C)C)C(=O)N(C)[C@@H](C(C)C)C(=O)N[C@@H](Cc2ccc(C(F)(F)F)cc2)C(=O)N(C)[C@@H](CC(C)C)C(=O)N[C@@H]([C@@H](C)O)C(=O)N(C)CC(=O)N1C [pd134] ([dV][NMeV][Phe(4-CF3)][NMeL]T[Sar][NMeL]S(tBu)[NMeF][NMeA]D-Piperidide; lactam N-11) | 2.6 ×10⁻⁶ cm/s
14 | CC[C@H](C)[C@@H]1NC(=O)[C@H](Cc2ccccc2)N(C)C(=O)CN(C)C(=O)C[C@@H](C(=O)N2CCCCC2)NC(=O)[C@H](C(C)C)N(C)C(=O)[C@H](COC(C)(C)C)NC(=O)[C@H](CC(C)C)N(C)C(=O)[C@H](Cc2ccccc2)N(C)C(=O)CN(C)C(=O)[C@H]([C@@H](C)O)NC(=O)[C@H](Cc2ccccc2)N(C)C1=O [pd205] ([Sar][NMeF]I[NMeF]T[Sar][NMeF][NMeL]S(tBu)[NMeV]D-Piperidide; lactam N-11) | 1.8 ×10⁻⁶ cm/s
15 | CC(C)C[C@@H]1NC(=O)[C@H](C)N(C)C(=O)C[C@@H](C(=O)N2CCCCC2)NC(=O)[C@H](CC(C)C)N(C)C(=O)CN(C)C(=O)[C@H]([C@@H](C)O)NC(=O)[C@H](CC(C)C)N(C)C(=O)[C@H](Cc2ccc(Cl)cc2)N(C)C(=O)[C@H](C)NC(=O)[C@H](Cc2ccccc2)N(C)C(=O)[C@H](CC(C)C)N(C)C1=O [pd173] ([NMeA]L[NMeL][NMeF]A[NMePhe(4-Cl)][NMeL]T[Sar][NMeL]D-Piperidide; lactam N-11) | 1.6 ×10⁻⁶ cm/s
16 | CC(C)C[C@@H]1NC(=O)[C@H](Cc2ccccc2)N(C)C(=O)[C@H](COC(C)(C)C)NC(=O)[C@H](Cc2ccccc2)N(C)C(=O)[C@H](Cc2ccccc2)N(C)C(=O)[C@H](CC(C)C)N(C)C(=O)[C@@H](CC(C)C)NC(=O)C[C@@H](C(=O)N2CCCCC2)NC(=O)[C@H](Cc2ccccc2)N(C)C(=O)[C@H]([C@@H](C)O)NC(=O)[C@H](CC(C)C)N(C)C1=O [pd243] ([dL][NMeL][NMeF][NMeF]S(tBu)[NMeF]L[NMeL]T[NMeF]D-Piperidide; lactam N-11) | 0.057 ×10⁻⁶ cm/s
17 | CC(C)C[C@H]1C(=O)N[C@@H](COC(C)(C)C)C(=O)N(C)[C@@H](Cc2ccccc2)C(=O)N(C)[C@@H](CC(C)C)C(=O)N[C@H](C(=O)N2CCCCC2)CC(=O)N2CCC[C@@H]2C(=O)N(C)[C@@H](Cc2cccc(Cl)c2)C(=O)N[C@@H](C(C)C)C(=O)N(C)[C@@H](C(C)C)C(=O)N[C@@H]([C@@H](C)O)C(=O)N(C)CC(=O)N1C [pd155] ([dP][NMePhe(3-Cl)]V[NMeV]T[Sar][NMeL]S(tBu)[NMeF][NMeL]D-Piperidide; lactam N-11) | 2.1 ×10⁻⁶ cm/s
